According to patent US20120178796A1, “SPLICE VARIANTS” (priority 2009, published 2012):

Columns and labels:
Type in all cases: cell-based, human
p53 [1] = assay: Immunoblot of p53 protein and p53 acetylation after siRNA silencing, HCT116 cells
Procedure: (§1) Isogenic colorectal carcinoma cell lines HCT116 p53+/+ and HCT116 p53-/- were cultured in DMEM supplemented with 10% FBS. Non-cancer retinal epithelial cell line ARPE-19 was cultured in DMEM:F12 supplemented with 10% FBS. Cells used in experiments were low passage number (not >8 splits from nitrogen). Transfection of siRNA were as described (Ford et al., 2005; Ford et al., 2008). SIRT1 FL siRNA (targeting SIRT1 FL and SIRT1 ΔEx3-4) is sited within exon8; SIRT1 ΔEx8 siRNA (targeting SIRT1 ΔEx8 and SIRT1 ΔEx3-4-8) is located across the alternate exon7-exon9 splice. Sequences and locations of siRNAs are detailed in the Supplementary Table 3.

[2] = test system: HCT116 colorectal cancer cells; assay: Apoptosis after siRNA silencing (micrographs, annexin V staining), HCT116 cells; details: single dose of siRNA, basal conditions
Procedure: as §1
(§2) Digital phase contrast cell images were captured on an Axiovert Cell Observer (Zeiss). Quantification of apoptosis was performed using an AnnexinV-Fluos kit (Roche) according to the manufacturer's instructions, with analysis by flow cytometry on a FACSCalibur (BD) using CellQuest software.

[3] = test system: ARPE19 retinal epithelial cells; assay: Morphological neuronal differentiation of ARPE19 cells (phase contrast micrographs); details: for morphological differentiation towards neuronal phenotype after siRNA silencing: 72 h to 96 hr after siRNA
Procedure: as §1, §2
Cells were treated for 48 h with 1 μM fenretinide in OPTIMEM media 24 h following siRNA transfection. Before addition of fenretinide cells were first washed with OPTIMEM to remove serum. 48 h later fenretinide was removed by washing with OPTIMEM and normal growth media with serum was added. Cells were then monitored by microscopy for a further 48 h.

p53 [4] = assay: Immunoblot of p53 protein and p53 acetylation after siRNA silencing or stress, ARPE19 cells; details: for p53 induction in response to DNA damaging agent: agent alone
Procedure: as §1

SIRT1 Δ2-9 mRNA = SIRT1 Δ2-9 mRNA knock-down by RT-PCR in ARPE19 and HCT116 cells
Procedure: as §1
Standard RT-PCR was performed on a DNA Engine Dyad (MJ Research) using a One-Step RT-PCR kit (Qiagen). Reaction endpoints were electrophoresed on agarose gels, visualised on a UV transilluminator (Appligene) and images captured with a DS34 camera (Polaroid). […] Total RNA from cell experiments was isolated using an RNeasy kit (Qiagen) and quantitated by UV spectroscopy (GeneSpecV). For qRT-PCR, reactions were run in quadruplicate on a DNA Engine Opticon (BioRad) using a QuantiTect SYBR Green RT-PCR kit (Qiagen). […]
In order to look at the functional significance of SIRT1 Δ2-9, a siRNA was designed to the splice junction region of exon-2 and exon-9. […] These changes were also confirmed by quantitative RT-PCR (FIG. 20E). […]

[5] = test system: ARPE19 non-cancer epithelial cells; assay: Apoptosis after siRNA silencing, ARPE19 cells
Procedure: as §1, §2

With UAAUUCCAAGUAAUCAGUA [SIRT1 ΔEx8 siRNA] the “accumulation of total p53 protein” value (p53 [1]; HCT116 cells, basal conditions) was “A similar effect was not observed”, the induction of apoptosis [2] was “did not induce apoptosis” and the “morphological differentiation towards neuronal phenotype after siRNA silencing” value [3] was “did not induce morphological differentiation”.
CCUUCUGUUCGUUCUUGUG [SIRT1 Δ2-9 siRNA] was tested, and the “p53 protein level (Western blot)” value (p53 [1]; HCT116 p53+/+ cells) was “significantly reduced”, the “p53 protein level (Western blot)” value (p53 [4]) was “significantly reduced” and the “stress-induced p53 induction in siRNA treated samples” value (p53 [4]; Etoposide, UV or 5FU in combination with siRNA) was “attenuated”. For the same compound, the “SIRT1 Δ2-9 mRNA expression” value (SIRT1 Δ2-9 mRNA) was “almost completely abolished”.
ACUUUGCUGUAACCCUGUA [SIRT1 FL siRNA] was tested, and the “accumulation of total p53 protein” value (p53 [1]; HCT116 cells, basal conditions) was “approximately 10 fold”, the “increase of p53 acetylation levels” value (p53 [1]; HCT116 cells, basal conditions) was “more than 50 fold” and the induction of apoptosis [2] was “induced massive apoptosis”. The induction of apoptosis [5] was “fails to induce apoptosis” and the “morphological differentiation towards neuronal phenotype after siRNA silencing” value [3] was “induces neuronal differentiation”.
With `O=c1[nH]cc(F)c(=O)[nH]1` [SFU, reference compound] the “p53 induction in response to DNA damaging agent” value (p53 [4]) was “induced substantially”.
`COc1cc([C@@H]2c3cc4c(cc3[C@@H](O[C@@H]3O[C@@H]5CO[C@@H](C)O[C@H]5[C@H](O)[C@H]3O)[C@H]3COC(=O)[C@H]23)OCO4)cc(OC)c1O` [Etoposide, reference compound] was tested, and the “p53 induction in response to DNA damaging agent” value (p53 [4]) was “induced substantially”.
With `CC1=C(/C=C/C(C)=C/C=C/C(C)=C/C(=O)Nc2ccc(O)cc2)C(C)(C)CCC1` [fenretinide, reference compound] the “neuronal differentiation induced by compound” value ([3]; 1 μM, 48 h, OPTIMEM) was “can be induced”.
